Like-named read-outs stand apart in the source and are kept apart here.
What was measured:
ovariectomized rats [1] = assay: Ash weight of tibial epiphyses in ovariectomized rats after 4 weeks dosing; type: in vivo; details: 3.0 mg/kg p.o., beginning one week after ovariectomy (Sham 34.0 ± 2.9; OVX 32.2 ± 2.8), * = p < 0.05 vs ovariectomized
Excerpt: (§1) Compounds were given p.o. to female rats for 4 or 5 weeks daily. At the end a blood sample was taken. Serum was separated by centrifugation and frozen until analyzed for total amount of cholesterol. Bone samples were taken from vertebra and tibia. Physical strength of the bones was studied as described by Peng et al, 1994. The assessments of the bone included: • Ash weight of tibial epiphyses • Epiphyses of one tibia was carefully prepared and burned. Samples were burned to remove water and organic material. Ash weight relates to the mineral content of the bone. In addition, bone samples were taken to study the histomorphometry. In some cases the bone formation was studied by injecting tetracycline (50 mg/kg i.p. 10 days before autopsy) and calcein (20 mg/kg i.p. 3 days before autopsy). The method is based on permanent binding of tetracycline into growing bone and its detection by fluorescence (Peng et al, 1994).

ovariectomized rats [2] = assay: Strength of femoral neck (cantilever bending test) in ovariectomized rats after 4 weeks dosing; type: in vivo; details: 3.0 mg/kg p.o., beginning one week after ovariectomy (Sham 86.7 ± 10.4; OVX 68.4 ± 8.5), * = p < 0.05 vs ovariectomized
Excerpt: as §1
The mechanical testing of bones was carried out by materials testing machine, constructed in-house at Oulu University (Technical Services Department of the Medical Faculty). The testing machine is based on lever arm principle. One end of a steel lever is fixed. […] Compressive force is measured by a temperature-compensated force sensor, which is attached to the stationary part of the compression stage. […]
The maximal load on the femoral neck was measured by the cantilever bending test. […]

immature female rats = assay: 3 day uterotropic assay in immature female rats (given alone and with estradiol); type: in vivo; details: 3 days, immature female rats
Protocol: The values are given at two dose levels, low i.e. 3―5 mg/kg and high i.e. 10―50 mg/kg. Estrogenic activity can be estimated also after a 4 weeks' treatment of ovariectomized rats based on the uterine size.

[3] = tested on: ovariectomized (OVX) rats; assay: Serum cholesterol level in ovariectomized (OVX) rats after 4 weeks dosing; type: in vivo, rat; details: for Cholesterol level (mmol/1) in serum: OVX rat, n=8 (Sham 3.8 ± 0.4; OVX 4.6 ± 0.7); for Effect on cholesterol (in words): summary statement referring to Table 4
Excerpt: as §1

MCF-7 cells = assay: cells; details: for inhibition at 1 µM / Emax / cytotoxicity at 10 µM: Homo sapiens, MCF7, 96 h; for inhibition at 1 µM: read-out: Antagonism at 1 µM (% of full antagonism); for Emax: read-out: Maximal Agonism (% of E2); for cytotoxicity at 10 µM: toxicity at 10 µmol/l, 100 = all cells dead
Protocol: For experiments involving hormone or anti-hormone treatment, the cells in exponential growth phase were precultivated in the absence of estradiol for one day. […] After the incubation period the medium was removed. The exposure to study drugs was started immediately by adding fresh medium with 5 % stripped serum. Half of the cells were grown with estradiol, half without estradiol. Study compounds (dissolved in ethanol in 0.01 M concentration and diluted with the growth medium as appropriate) were added. The final concentrations of the compounds were 1,10, and 100 nM, and 1 and 10 µM. The cells were incubated for four days.
This method allows evaluation of estrogenicity based on the ability of the compounds to stimulate the growth of the estrogen-dependent cells in the absence of estradiol. Estrogenicity was estimated by comparing the maximal growth stimulus (at any concentration) of study compound as per cent from growth stimulus by estradiol (100 % stimulus). […] At high concentrations molecules may also show toxicity. Toxicity was estimated as the fraction of dead cells (i.e. 100 % means that all cells have died during the exposure).

ovariectomized rats [4] = details: 3.0 mg/kg peroral daily, 4 weeks, ovariectomized rats (Sham 0.497 ± 0.103; Ovariectomized 0.099 ± 0.016)
[5] = read-out: Maximal Cell Kill (% fraction of dead cells), With estradiol (E2)
[6] = read-out: Maximal Cell Kill (% fraction of dead cells), Without estradiol (E2)
[7] = summary statement referring to Table 2

Compound | Ash weight (mg) of tibial epiphyses (ovariectomized rats [1]) | Maximal load (N) of femoral neck (ovariectomized rats [2]) | Estrogen antagonism (% inhibition of estradiol) Given with estradiol (immature female rats; dose 3–5 mg/kg) | Uterotropic effect (% of estradiol) Given without estradiol (immature female rats; dose 3–5 mg/kg) | Estrogen antagonism (% inhibition of estradiol) Given with estradiol (immature female rats; dose 10–50 mg/kg) | Uterotropic effect (% of estradiol) Given without estradiol (immature female rats; dose 10–50 mg/kg) | Cholesterol level (mmol/1) in serum ([3]; 3 mg/kg, 4 weeks dosing) | Effect on ovariectomy-induced increase of serum cholesterol level (in words) ([3]; OVX rats, 4 weeks dosing) | Effect on cholesterol (in words) [3] | inhibition at 1 µM (MCF-7 cells) | Emax (MCF-7 cells) | cytotoxicity at 10 µM (MCF-7 cells; [5]) | cytotoxicity at 10 µM (MCF-7 cells; [6]) | Kill of MCF-7 cells (in words) (MCF-7 cells; highest investigated concentration (10 µM), Table 2) | Hormonal activity (in words) (MCF-7 cells; [7]) | Estrogenic and antiestrogenic action (in words) (MCF-7 cells; summary statement referring to Tables 2, 3 and 4) | Uterine size (ovariectomized rats [4]) | Cytotoxic action (in words) (MCF-7 cells; [7]) | Cholesterol level (mmol/1) in serum ([3]; 3 µg/kg, 4 weeks dosing)
CN(C)CCOc1ccc(/C(=C(/CCCl)c2ccccc2)c2ccc(Cl)cc2)cc1 [No. 3, (E)-(2-{4-[4-Chloro-1-(4-chlorophenyl)-2-phenylbut-1-enyl]phenoxy}-ethyl)dimethylamine] | 36.0±3.4* mg | 92.5±11.1* N | 65 % inhibition of estradiol | 44 % of estradiol | 38 % inhibition of estradiol | 54 % of estradiol | 3.1 ± 0.4 mmol/1 | can prevent this increase even at very low dose and decrease the level below the sham operated level | decrease cholesterol | 1% | 1% | 94% | 100% | kill MCF-7 cells (human breast cancer cells) effectively | weak hormonal activity | weak estrogenic and no antiestrogenic action | 0.140 ± 0.006 g |  | 
CN(C)CCOc1cccc(/C(=C(/CCCl)c2ccccc2)c2ccccc2)c1 [No. 33, (Z)-{2-[3-(4-Chloro-1,2-diphenylbut-1-enyl)phenoxy]ethyl}dimethylamine] |  |  |  |  |  |  |  |  | decrease cholesterol | 58% |  | 80% | 0% |  |  |  |  | weak | 
OCCCOc1ccc(/C(=C(/CCCl)c2ccccc2)c2ccccc2)cc1 [No. 35, (Z)-3-[4-(4-Chloro-1,2-diphenylbut-1-enyl)phenoxy]propan-1-ol] |  |  | 35 % inhibition of estradiol | 43 % of estradiol | 32 % inhibition of estradiol | 66 % of estradiol |  |  |  | 14% |  | 50% | 50% |  |  |  |  |  | 
O=C(c1ccc(OCCN2CCCCC2)cc1)c1c(-c2ccc(O)cc2)sc2cc(O)ccc12 [Raloxifene, reference compound] | 34.9 ± 3.5 mg | 84.2 ± 18.4* N | 90 % inhibition of estradiol | 11 % of estradiol | 92 % inhibition of estradiol | 13 % of estradiol |  |  |  |  |  |  |  |  |  |  | 0.141 ± 0.021 g |  | 
CC/C(=C(\c1ccccc1)c1ccc(OCCN(C)C)cc1)c1ccccc1 [Tamoxifen, reference compound] |  |  | 51 % inhibition of estradiol | 44 % of estradiol | 58 % inhibition of estradiol | 51 % of estradiol |  |  |  | 43% | 31% | 100% | 100% |  |  |  |  |  | 
CN(C)CCOc1ccc(/C(=C(/CCCl)c2ccccc2)c2ccccc2)cc1 [Toremifene, 4-chloro-1,2-diphenyl-1-[4-[2-(N,N-dimethylamino)ethoxy]phenyl]-1-butene, Z-isomer, reference compound] |  |  | 45 % inhibition of estradiol | 26 % of estradiol | 58 % inhibition of estradiol | 44 % of estradiol |  |  |  | 44% | 37% | 100% | 100% |  |  |  |  |  | 
C[C@]12CC[C@@H]3c4ccc(O)cc4CC[C@H]3[C@@H]1CC[C@@H]2O [estradiol, reference compound] |  |  |  |  |  |  |  |  |  |  |  |  |  |  |  |  |  |  | 4.0 ± 0.4 mmol/1

Reference: patent EP1705169A2, “Triphenylalkene derivatives and their use as selective estrogen receptor modulators” (priority 1999, dated 2001)
